“And” between values parts separate entries of the source, which are not always exact repeats. Equal entries are not always repeated.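 These data come from cells grown in 96-well plates and exposed to compound for 48 hours at five concentrations. At the GI50, growth is halved. Definition used: TGI = concentration required for complete inhibition of growth.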 A value given as a limit tells only on which side of the number the result lay.

Results on ten compounds are retold here after PubChem BioAssay (NCI).

Among the test systems are A549 NSCLC; KM12 colon; LOX IMVI melanoma; MDA-MB-435; OVCAR-3 ovarian; PC-3 prostate; SK-MEL-5 melanoma; SN12C renal; TK-10 renal; UACC-62 melanoma.
Holding throughout (experiment): growth of human tumour cells (NCI), 48 h

As to `CCOC(=O)C1=C(C)NC2SC(=O)/C(=C\c3ccccc3O)N2C1c1ccccc1` (stereo not given), the GI50 in the experiment on A549 NSCLC is 27.2 µM; in the experiment on KM12 colon, 16.6 µM; in the experiment with LOX IMVI melanoma it was 18.4 µM; with MDA-MB-435, 19.6 µM; in the experiment with OVCAR-3 ovarian it was 20.4 µM; in the experiment on PC-3 prostate it was 26.5 µM. Moreover, the GI50 was 17.2 µM in the experiment on SK-MEL-5 melanoma, 16.6 µM in the experiment with SN12C renal, 21.3 µM in the experiment on TK-10 renal and 18 µM in the experiment with UACC-62 melanoma. Also, the TGI in the experiment on A549 NSCLC is over 100 µM; in the experiment on KM12 colon, 43.5 µM; in the experiment with LOX IMVI melanoma it was 34 µM; with MDA-MB-435 it was 62.5 µM; in the experiment with OVCAR-3 ovarian, 49.9 µM; in the experiment on PC-3 prostate it was 74.1 µM. Moreover, the TGI in the experiment on SK-MEL-5 melanoma stood at 32.5 µM; in the experiment with SN12C renal, 30.5 µM; in the experiment on TK-10 renal, 49 µM; in the experiment on UACC-62 melanoma it was 41.8 µM.
Consider `CCCC[N+](CCCC)=c1ccc2nc3c(C)cc(N(CC)CC)cc3sc-2c1`, for which the GI50 in the experiment with KM12 colon is 0.113 µM; with LOX IMVI melanoma, 0.146 µM; with MDA-MB-435, 0.205 µM; with OVCAR-3 ovarian, 0.12 µM; with PC-3 prostate it was 0.0583 µM; in the experiment with SK-MEL-5 melanoma, 0.0993 µM. In addition, the GI50 in the experiment with TK-10 renal is 0.102 µM; in the experiment on UACC-62 melanoma, 0.29 µM. Also, the TGI was 1.34 µM with KM12 colon; 1.13 µM in the experiment on LOX IMVI melanoma; 1.2 µM with MDA-MB-435; 1.15 µM in the experiment on OVCAR-3 ovarian; 1.55 µM in the experiment on PC-3 prostate; 0.403 µM in the experiment on SK-MEL-5 melanoma. Also, the figures for the TGI in the experiment on TK-10 renal and with UACC-62 melanoma were 1.58 µM and 1.77 µM, respectively.
Regarding `O=[N+]([O-])c1ccc2c(N3CCC(CCCC4CCN(c5ncnc6cc([N+](=O)[O-])ccc56)CC4)CC3)ncnc2c1`, the GI50 in the experiment with A549 NSCLC was 38.1 µM; in the experiment with KM12 colon it was over 56.7 µM; with LOX IMVI melanoma, 29.7 µM; in the experiment with MDA-MB-435, over 40.7 µM; with OVCAR-3 ovarian, 21.6 µM; in the experiment with PC-3 prostate, 8.96 µM. The GI50 is 0.156 µM in the experiment with SK-MEL-5 melanoma, over 55.9 µM with SN12C renal, over 58.7 µM with TK-10 renal and over 33.4 µM in the experiment with UACC-62 melanoma. Moreover, the TGI in the experiment on A549 NSCLC, in the experiment on KM12 colon, in the experiment on LOX IMVI melanoma, with MDA-MB-435, in the experiment on OVCAR-3 ovarian and in the experiment on PC-3 prostate was over 100 µM in each case. Also, the TGI is 11.8 µM in the experiment on SK-MEL-5 melanoma, over 100 µM with SN12C renal, over 100 µM in the experiment on TK-10 renal and over 56.9 µM in the experiment on UACC-62 melanoma.
In the case of `O=C1C2=Nc3ccccc3C(O)N2c2ccccc21` (stereo not given), the TGI was over 100 µM with A549 NSCLC; over 100 µM with KM12 colon; 13.1 µM in the experiment with LOX IMVI melanoma; 6.29 µM in the experiment on MDA-MB-435; 56.3 µM in the experiment with OVCAR-3 ovarian; over 100 µM in the experiment with PC-3 prostate. The TGI with SK-MEL-5 melanoma was 3.76 µM; with SN12C renal, over 100 µM; in the experiment with TK-10 renal, over 100 µM; in the experiment with UACC-62 melanoma it was 12.9 µM.
Consider `Cn1nnnc1N/N=C/c1ccccc1`, for which the TGI with A549 NSCLC, in the experiment on KM12 colon, in the experiment with LOX IMVI melanoma, in the experiment with MDA-MB-435, in the experiment on OVCAR-3 ovarian and with PC-3 prostate was over 10 µM each time. Further, the TGI with SK-MEL-5 melanoma, in the experiment on SN12C renal, in the experiment with TK-10 renal and in the experiment on UACC-62 melanoma was over 10 µM in each case.
`Cc1ccc(Nc2n[nH]c(=S)s2)cc1`: the TGI in the experiment on A549 NSCLC, in the experiment with KM12 colon, with LOX IMVI melanoma, in the experiment with MDA-MB-435, with OVCAR-3 ovarian and with PC-3 prostate was over 100 µM each time. For the same compound, the TGI with SK-MEL-5 melanoma, in the experiment with SN12C renal, in the experiment with TK-10 renal and with UACC-62 melanoma was over 100 µM in each case.
For the compound `CCOC(=O)c1c2c(n(Cc3ccccc3)c1C)-c1ccccc1C(=O)C2=O`, the GI50 in the experiment with A549 NSCLC is 16.8 µM; with KM12 colon, 19.8 µM; in the experiment on LOX IMVI melanoma it was 11.8 µM; in the experiment with MDA-MB-435, 29 µM; in the experiment with OVCAR-3 ovarian it was 12.2 µM; in the experiment with PC-3 prostate, 6.83 µM. The GI50 in the experiment with SK-MEL-5 melanoma is 18 µM; in the experiment with SN12C renal, 15.7 µM; with TK-10 renal it was 16.3 µM; in the experiment with UACC-62 melanoma, 17.8 µM. Moreover, the TGI with A549 NSCLC stood at 36.4 µM; with KM12 colon it was 65.3 µM; in the experiment on LOX IMVI melanoma it was 24.6 µM; in the experiment with MDA-MB-435 it was 87 µM; with OVCAR-3 ovarian, 29.3 µM; with PC-3 prostate, 19.8 µM. The TGI stood at 41.2 µM with SK-MEL-5 melanoma, 41.6 µM in the experiment with SN12C renal, 34.6 µM in the experiment on TK-10 renal and 34.2 µM in the experiment with UACC-62 melanoma.
Turning to `CNC(=O)c1ccc2cc(C3(O)CCn4cncc43)ccc2c1` (stereo not given), the GI50 in the experiment with A549 NSCLC, in the experiment on KM12 colon, in the experiment on LOX IMVI melanoma, in the experiment on MDA-MB-435, in the experiment on OVCAR-3 ovarian and in the experiment on PC-3 prostate was over 100 µM in each case. The GI50 with SK-MEL-5 melanoma, in the experiment with SN12C renal, with TK-10 renal and in the experiment on UACC-62 melanoma was over 100 µM each time. For the same compound, the TGI with A549 NSCLC, in the experiment with KM12 colon, in the experiment with LOX IMVI melanoma, in the experiment on MDA-MB-435, in the experiment with OVCAR-3 ovarian and in the experiment with PC-3 prostate was over 100 µM each time. Moreover, the TGI in the experiment with SK-MEL-5 melanoma, in the experiment on SN12C renal, with TK-10 renal and in the experiment on UACC-62 melanoma was over 100 µM in each case.
As for `C/C1=C/C2=CC(C)C[C@@H]2C(=O)[C@]2(C)C(=O)CC(C)(C)[C@H]2CC1=O` (stereo not given in full), the TGI in the experiment on A549 NSCLC, with KM12 colon, in the experiment on LOX IMVI melanoma, in the experiment with MDA-MB-435, with OVCAR-3 ovarian and with PC-3 prostate was over 50 µM in each case. Moreover, the TGI with SK-MEL-5 melanoma, with SN12C renal, in the experiment on TK-10 renal and with UACC-62 melanoma was over 50 µM each time.
Take `CN(C)CCOc1ccc(/C(=C(/CCCl)c2ccccc2)c2ccccc2)cc1`: the GI50 with A549 NSCLC is 1.27 µM; in the experiment on KM12 colon, 1.18 µM; in the experiment with LOX IMVI melanoma, 0.819 µM; with MDA-MB-435 it was 0.894 µM; in the experiment with OVCAR-3 ovarian it was 0.928 µM; in the experiment with PC-3 prostate it was 0.901 µM. The GI50 in the experiment with SK-MEL-5 melanoma is 0.784 µM; in the experiment on SN12C renal, 1.57 µM; in the experiment on TK-10 renal it was 0.991 µM; in the experiment on UACC-62 melanoma it was 0.891 µM. Besides, the TGI in the experiment on A549 NSCLC is 3.24 µM and 29.9 µM; in the experiment on KM12 colon it was 12.8 µM and 32.4 µM; with SN12C renal it was 6.01 µM and 30.3 µM; in the experiment on UACC-62 melanoma, 1.66 µM.
